Measurements from the supplement of paper PMC10307832.

Assays:
Experiment in all cases: relative viability (nuclei count vs DMSO), 5 days (fraction); higher = more cells survive
Adavosertib + OSI-027 = compound: C=CCn1c(=O)c2cnc(Nc3ccc(N4CCN(C)CC4)cc3)nc2n1-c1cccc(C(C)(C)O)n1 [Adavosertib] + COc1cccc2cc(-c3nc([C@H]4CC[C@H](C(=O)O)CC4)n4ncnc(N)c34)[nH]c12 [OSI-027] (partner 0.5 µM)
Method in brief: (§1)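 Lung cancer cell lines in 1536-well plates were dosed by pin tool the day after seeding, either with one drug alone or with a fixed anchor-drug dose plus five library-drug doses (not always all listed) in √10 steps. After 5 days, cells were fixed and their nuclei stained in one step (final 0.05% Triton X-100, 1% formaldehyde, 1 ug/ml Hoechst), then counted on 4× images. Relative viability is the nuclei count in treated wells divided by that in vehicle wells. Values are medians of duplicate plates.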

Nelarabine + Dasatinib = compound: COc1nc(N)nc2c1ncn2[C@@H]1O[C@H](CO)[C@@H](O)[C@@H]1O [Nelarabine] + Cc1nc(Nc2ncc(C(=O)Nc3c(C)cccc3Cl)s2)cc(N2CCN(CCO)CC2)n1 [Dasatinib] (partner 0.075 µM)
Method in brief: as §1

Nelarabine + Lapatinib = compound: COc1nc(N)nc2c1ncn2[C@@H]1O[C@H](CO)[C@@H](O)[C@@H]1O [Nelarabine] + CS(=O)(=O)CCNCc1ccc(-c2ccc3ncnc(Nc4ccc(OCc5cccc(F)c5)c(Cl)c4)c3c2)o1 [Lapatinib] (partner 2 µM)
Method in brief: as §1

Adavosertib + Pictilisib = compound: C=CCn1c(=O)c2cnc(Nc3ccc(N4CCN(C)CC4)cc3)nc2n1-c1cccc(C(C)(C)O)n1 [Adavosertib] + CS(=O)(=O)N1CCN(Cc2cc3nc(-c4cccc5[nH]ncc45)nc(N4CCOCC4)c3s2)CC1 [Pictilisib] (partner 1 µM)
Method in brief: as §1

Cell Line	relative viability (Adavosertib + OSI-027; first compound 0.01 µM)	relative viability (Adavosertib + OSI-027; first compound 0.03162 µM)	relative viability (Adavosertib + OSI-027; first compound 0.1 µM)	relative viability (Adavosertib + OSI-027; first compound 0.3162 µM)	relative viability (Nelarabine + Dasatinib; first compound 0.01 µM)	relative viability (Nelarabine + Dasatinib; first compound 0.03162 µM)	relative viability (Nelarabine + Dasatinib; first compound 0.1 µM)	relative viability (Nelarabine + Dasatinib; first compound 0.3162 µM)	relative viability (Nelarabine + Dasatinib; first compound 1 µM)	relative viability (Nelarabine + Lapatinib; first compound 0.01 µM)	relative viability (Nelarabine + Lapatinib; first compound 0.03162 µM)	relative viability (Nelarabine + Lapatinib; first compound 0.1 µM)	relative viability (Nelarabine + Lapatinib; first compound 0.3162 µM)	relative viability (Nelarabine + Lapatinib; first compound 1 µM)	relative viability (Adavosertib + Pictilisib; first compound 0.01 µM)	relative viability (Adavosertib + Pictilisib; first compound 0.03162 µM)	relative viability (Adavosertib + Pictilisib; first compound 0.1 µM)	relative viability (Adavosertib + Pictilisib; first compound 0.3162 µM)
NCI-H1623	0.427	0.446	0.389	0.431	0.525	0.563	0.51	0.559	0.517	–	–	–	–	–	–	–	–	–
HARA	0.485	0.486	0.591	0.368	0.279	0.339	0.236	0.329	0.436	0.971	0.666	0.719	0.808	0.767	0.409	0.461	0.374	0.269
NCI-H2126	0.569	0.697	0.769	0.727	0.701	0.55	0.43	0.692	0.639	0.91	0.763	0.72	0.754	0.797	0.531	0.526	0.506	0.521
NCI-H1703	–	–	–	–	–	–	–	–	–	1.65	1.33	1.42	1.05	1.11	0.297	0.227	0.179	0.127
UMC-11	0.48	0.442	0.432	0.444	0.698	0.463	0.575	0.541	0.608	1.05	0.863	1.02	1.02	1.14	0.817	0.723	0.743	0.755
PC-14	0.916	0.835	0.846	0.114	0.253	0.233	0.131	0.304	0.315	0.327	0.342	0.307	0.328	0.353	0.72	0.64	0.569	0.272
NCI-H1792	–	0.701	1.12	0.751	–	0.876	0.627	0.95	0.846	0.913	–	1.45	1.03	0.967	0.294	0.224	0.233	0.272
NCI-H1651	0.577	0.571	0.781	0.539	0.4	0.372	0.387	0.355	0.368	1.1	1.02	1.05	0.881	0.854	0.497	0.491	0.565	0.42
HCC-15	0.669	0.786	0.756	0.802	0.568	0.554	0.523	0.639	0.67	0.987	0.798	0.928	0.883	0.9	0.724	0.713	0.727	0.934
NCI-H2170	0.703	0.786	0.632	0.597	0.61	0.608	0.491	0.697	0.614	0.284	0.232	0.262	0.293	0.28	0.345	0.308	0.264	0.31
SW 1573	0.645	0.626	0.882	0.278	0.422	0.453	0.394	0.485	0.494	1.14	1.13	1.11	1.18	1.2	0.482	0.525	0.58	0.343
NCI-H661	0.762	0.723	0.685	0.284	1	0.913	0.953	0.934	0.853	0.497	0.644	0.556	0.502	0.509	0.33	0.415	0.352	0.322
PC-3 [JPC-3]	0.805	0.743	0.775	0.731	1.03	1.01	0.938	1.04	0.97	0.508	0.373	0.439	0.451	0.436	0.719	0.775	0.725	0.865
NCI-H358	0.786	0.913	0.637	0.326	0.17	0.144	0.148	0.145	0.154	0.518	0.436	0.421	0.405	0.431	0.356	0.312	0.353	0.285
COR-L23	0.858	0.745	0.717	0.349	0.611	0.442	0.502	0.543	0.402	1.39	1.17	1.12	1.02	0.982	0.665	0.636	0.722	0.266
IA-LM	–	–	–	–	–	–	–	–	–	1.01	0.74	0.829	0.9	0.932	0.363	0.404	0.418	0.365
ABC-1	0.411	0.406	0.405	0.419	0.705	0.462	0.507	0.548	0.545	1.44	0.952	1.23	1.1	1.37	0.586	0.695	0.528	0.627
RERF-LC-KJ	0.561	0.512	0.555	0.465	0.824	0.884	0.716	0.808	0.761	0.912	0.99	1.01	0.88	0.876	0.568	0.636	0.519	0.358

Cell Line	relative viability (Adavosertib + OSI-027; first compound 0.01 µM)	relative viability (Adavosertib + OSI-027; first compound 0.03162 µM)	relative viability (Adavosertib + OSI-027; first compound 0.1 µM)	relative viability (Adavosertib + OSI-027; first compound 0.3162 µM)	relative viability (Nelarabine + Dasatinib; first compound 0.01 µM)	relative viability (Nelarabine + Dasatinib; first compound 0.03162 µM)	relative viability (Nelarabine + Dasatinib; first compound 0.1 µM)	relative viability (Nelarabine + Dasatinib; first compound 0.3162 µM)	relative viability (Nelarabine + Dasatinib; first compound 1 µM)	relative viability (Nelarabine + Lapatinib; first compound 0.01 µM)	relative viability (Nelarabine + Lapatinib; first compound 0.03162 µM)	relative viability (Nelarabine + Lapatinib; first compound 0.1 µM)	relative viability (Nelarabine + Lapatinib; first compound 0.3162 µM)	relative viability (Nelarabine + Lapatinib; first compound 1 µM)	relative viability (Adavosertib + Pictilisib; first compound 0.01 µM)	relative viability (Adavosertib + Pictilisib; first compound 0.03162 µM)	relative viability (Adavosertib + Pictilisib; first compound 0.1 µM)	relative viability (Adavosertib + Pictilisib; first compound 0.3162 µM)
NCI-H1563	0.737	0.812	0.766	0.757	0.458	0.437	0.427	0.42	0.406	0.944	1.02	0.985	0.998	1.03	0.631	0.62	0.609	0.625
A-427	0.472	0.411	0.481	0.268	0.721	0.662	0.753	0.736	0.789	1.15	0.973	1.14	1.1	1.11	0.735	0.653	0.684	0.798
EKVX	0.729	0.77	0.679	0.651	0.509	0.468	0.396	0.575	0.608	0.2	0.155	0.168	0.204	0.21	0.44	0.448	0.433	0.437
LOU-NH91	0.65	0.707	0.742	0.677	0.628	0.591	0.436	0.585	0.605	0.817	0.633	0.692	0.775	0.788	0.521	0.508	0.544	0.457
SW 900	–	0.554	0.494	0.436	0.555	0.439	0.524	0.623	0.639	–	–	–	–	–	–	–	–	–
201T	0.667	0.734	0.669	0.666	0.602	0.57	0.429	0.577	0.625	1.05	1.02	0.999	1.09	1.1	0.668	0.683	0.625	0.654
NCI-H1793	0.282	0.289	0.26	0.277	0.458	0.398	0.416	0.426	0.409	0.827	0.945	0.83	0.933	0.727	0.385	0.295	0.318	0.248
ChaGo-K-1	0.546	0.633	0.511	0.591	0.624	0.515	0.533	0.707	0.568	–	–	–	–	–	0.579	0.678	0.663	0.631
Calu-6	–	–	–	–	–	–	–	–	–	1.29	1.04	1.08	1.18	1.14	0.922	0.875	0.788	0.333
NCI-H1648	0.273	0.293	0.248	0.251	–	–	–	–	–	–	–	–	–	–	–	–	–	–
EBC-1	–	–	–	–	–	–	–	–	–	0.177	0.205	0.188	0.215	0.197	0.387	0.429	0.382	0.286
A549	–	–	–	–	–	–	–	–	–	1.13	1.09	0.926	0.896	0.921	0.505	0.513	0.554	0.382
NCI-H2342	0.575	0.566	0.676	0.616	0.324	0.302	0.282	0.346	0.29	–	–	–	–	–	–	–	–	–
HCC-44	0.525	0.484	0.538	0.578	–	–	–	–	–	1.08	1.07	1.14	1.03	1.02	0.518	0.647	0.526	0.62
NCI-H441	0.758	0.56	0.471	0.425	0.598	0.516	0.43	0.596	0.784	–	–	–	–	–	0.561	0.497	0.378	0.33
LCLC-103H	0.458	0.441	0.428	0.417	0.458	0.45	0.342	0.499	0.471	–	–	–	–	–	0.544	0.517	0.561	0.516
NCI-H1299	–	–	–	–	–	–	–	–	–	1	0.999	1.02	0.98	1	0.982	0.66	0.541	0.123
NCI-H522	0.809	0.784	0.718	0.659	0.863	0.866	1.07	0.801	0.993	–	–	–	–	–	–	–	–	–
